From paper PMC10780175, “In Silico and In Vivo Pharmacokinetic Evaluation of 84-B10, a Novel Drug Candidate against Acute Kidney Injury and Chronic Kidney Disease” (Molecules, 2023)
Read-outs that look alike come from different tables or passages of the source.

How the values were obtained:
[1] = Pharmacokinetic study in rats after intraperitoneal injection (UHPLC-MS/MS); type: in vivo, Sprague Dawley rats; conditions: for Cmax / AUC(0-inf) / AUC(0-t) / Tmax / half-life: ip
Procedure: (§1) The validated UPLC-MS/MS method was successfully applied to the pharmacokinetic study and tissue distribution in rats after an intraperitoneal injection of 84-B10 (0.36 mg/kg). […] Two hours later, the plasma concentration tended to flatten out, with a concentration of approximately 10 ng/mL. AUC0–t and AUC0–∞ were 269 and 278 h*ng/mL, respectively. After an intraperitoneal administration, 84-B10 could be detected in different tissues, indicating a wide distribution (Figure 4). The compound rapidly distributed and reached maximum concentration at 0.033 h for most tissues. […] In most tissues, 84-B10 was eliminated at 8 h.
84-B10 was determined and quantified by ExionLC system coupled with SCIEX 4500 triple quadrupole mass spectrometers (SCIEX, Framingham, MA, USA). A phenyl HPLC column (50 × 2.1 mm, 3 μm) (YMC, Kyoto, Japan) was used for separation. Methanol was selected as the organic phase as it could better reflect the π-π selectivity between benzene and the chromatographic column. An amount of 5 mM ammonium formate was added into water to adjust the dissociation of 84-B10 and to improve the chromatographic peak. The flow rate was 0.3 mL/min with gradient elution (Table 8).
(§2) After one week of adaptive feeding, pharmacokinetic experiments were conducted. 84-B10 (0.36 mg/kg) solution was injected and blood was collected into tubes containing heparin sodium at 0.033, 0.083, 0.25, 0.5, 1, 2, 4, 6 and 8 h after administration. Blood was centrifuged at 8000 rpm for 5 min to obtain the plasma. The tissue was accurately weighed and ground with pure water (w:v, 1:5) to obtain homogenate. An amount of 50 µL of biological matrix was precipitated with 200 μL of methanol containing IS (Ginkgolide J, 2 μg/mL). After vortexing for 5 min, the samples were centrifuged at 12,000 rpm for 5 min and the supernatant was taken for injection.

[2] = Tissue distribution in rats after intraperitoneal injection; type: in vivo, Sprague Dawley rats; conditions: intraperitoneal 0.36 mg/kg
Procedure: as §1, §2

[3] = Stability of 84-B10 in rat plasma under different storage conditions; type: in vitro ADME; conditions: n = 6
Procedure: The method was validated according to the Bioanalytical Method Validation Guidance for Industry issued by Food and Drug Administration of USA in 2018. In short, blank plasma from six different rats was collected and spiked with or without LLOQ working solutions to evaluate the sensitivity. The linear least square method was used to fit the standard curve, and the weighting coefficient was 1/x^2. The precision and accuracy were evaluated by analyzing three different concentrations of quality control samples in three consecutive days. Blank plasma was first precipitated with methanol and then spiked with QC working solutions into supernatant. The peak area was compared with QC samples to estimate the extraction recovery. Alternatively, blank plasma was replaced with ultrapure water and mixed with QC working solutions. The matrix effect was then evaluated. For stability evaluation, different concentrations of QC samples were stored at room temperature for 2 h, frozen–thawed for three cycles, or stored in an auto-sampler (extracted samples, 4 °C) for 24 h and then analyzed.

[4] = parameters: method as in PMID 36629048; conditions: mice, intraperitoneal 5 mg/kg, plasma, non-compartmental WinNonlin 7.0 on concentrations from previous publication; cited from earlier work
Lon protease 1 (LONP1) = molecular target: Lon protease 1 (LONP1); parameters: method as in PMID 36629048; conditions: cited from earlier work
LonP1 = system: LonP1; parameters: method as in PMID 36629048; conditions: cited from earlier work
[5] = system: cisplatin-induced acute kidney injury; parameters: method as in PMID 36403736, PMID 36629048; conditions: mice, 5 mg/kg; cited from earlier work
[6] = system: renal fibrosis induced by unilateral ureteral obstruction (UUO) or unilateral ischemia reperfusion injury (UIRI); parameters: method as in PMID 36403736, PMID 36629048; conditions: mice, dose of 0.5–7.5 mg/kg; cited from earlier work
[7] = Sprague Dawley, rat, plasma, single intraperitoneal injection 0.36 mg/kg, female, mean ± SD
[8] = Sprague Dawley, rat, plasma, single intraperitoneal injection 0.36 mg/kg, male, mean ± SD
[9] = both sexes, Sprague Dawley, rat, plasma, single intraperitoneal injection 0.36 mg/kg, total (male and female), mean ± SD
[10] = extracted rat plasma samples, autosampler 4 °C for 24 h, spiked 3 ng/mL
[11] = extracted rat plasma samples, autosampler 4 °C for 24 h, spiked 300 ng/mL
[12] = extracted rat plasma samples, autosampler 4 °C for 24 h, spiked 750 ng/mL
[13] = rat plasma, room temperature for 2 h, spiked 3 ng/mL
[14] = rat plasma, room temperature for 2 h, spiked 300 ng/mL
[15] = rat plasma, room temperature for 2 h, spiked 750 ng/mL
[16] = rat plasma, three freeze–thaw cycles, spiked 3 ng/mL
[17] = rat plasma, three freeze–thaw cycles, spiked 300 ng/mL
[18] = rat plasma, three freeze–thaw cycles, spiked 750 ng/mL

`COc1ccc(Oc2ccc(C(F)(F)F)cc2NC(=O)CC(CC(=O)O)c2ccccc2)cc1` (stereo not shown) [84-B10, 5-[[2-(4-methoxyphenoxy)-5-(trifluoromethyl)phenyl]amino]-5-oxo-3-phenylpentanoic acid] showed a Cmax ([1]; Sprague Dawley, rat, intraperitoneal 0.36 mg/kg, plasma, non-compartmental WinNonlin 7.0, read-out: Cmax, observed) of 257 ng/mL, a concentration at 2 h ([1]; Sprague Dawley, rat, plasma, intraperitoneal 0.36 mg/kg, 2 h after injection, curve flattens out, read-out: plasma concentration two hours later) of ~10 ng/mL and an AUC(0-inf) [1, 7] of 241 ± 29 ng·h/mL. For the same compound, the AUC(0-t) [1, 7] was 233 ± 27 ng·h/mL, the Tmax [1, 7] was 8.4 ± 6 min and the half-life [1, 7] was 25.8 ± 2.4 min. It also gave a Cmax ([1]; Sprague Dawley, rat, plasma, single intraperitoneal injection 0.36 mg/kg, female, mean ± SD, read-out: Cmax) of 231 ± 2.08 ng/mL, an AUC(0-inf) [1, 8] of 315 ± 31 ng·h/mL and an AUC(0-t) [1, 8] of 305 ± 30.2 ng·h/mL. It also gave a Tmax [1, 8] of 11.4 ± 6 min, a half-life [1, 8] of 27 ± 1.2 min and a Cmax ([1]; Sprague Dawley, rat, plasma, single intraperitoneal injection 0.36 mg/kg, male, mean ± SD, read-out: Cmax) of 284 ± 48.2 ng/mL. It also gave an AUC(0-inf) [1, 9] of 278 ± 48.9 ng·h/mL, an AUC(0-t) [1, 9] of 269 ± 47.3 ng·h/mL and a Tmax [1, 9] of 10.2 ± 5.4 min. The half-life [1, 9] was 26.4 ± 1.8 min, the Cmax ([1]; both sexes, Sprague Dawley, rat, plasma, single intraperitoneal injection 0.36 mg/kg, total (male and female), mean ± SD, read-out: Cmax) was 257 ± 42.4 ng/mL and the “gender difference in the absorption” value ([1]; intraperitoneal 0.36 mg/kg, male vs female) was “no significant gender difference”. The “Cl, observed” value ([1]; intraperitoneal 0.36 mg/kg, plasma, non-compartmental WinNonlin 7.0) was 22.2 mL/min/kg, the CL ([1]; single intraperitoneal injection 0.36 mg/kg, female, mean ± SD) was 25.15 ± 2.95 mL/min/kg and the CL ([1]; single intraperitoneal injection 0.36 mg/kg, male, mean ± SD) was 19.15 ± 1.98 mL/min/kg. For the same compound, the CL ([1]; single intraperitoneal injection 0.36 mg/kg, total (male and female), mean ± SD) was 22.15 ± 3.98 mL/min/kg, the Tmax ([2]; Sprague Dawley, rat, most tissues (tissue homogenate), ip, most tissues, read-out: time of maximum concentration in most tissues) was 1.98 min and the “tissues with highest concentration” value [2] was “most concentrated in the intestine, stomach, liver, kidney and lung”. For the same compound, the “time at which eliminated in most tissues” value ([2]; most tissues) was 8 h, the “Measured Concentrations” value [3, 10] was 3.15 ± 0.11 ng/mL and the RE [3, 10] was 5.00%. For the same compound, the “Measured Concentrations” value [3, 11] was 299 ± 10 ng/mL, the RE [3, 11] was −0.33% and the “Measured Concentrations” value [3, 12] was 710 ± 27 ng/mL. The RE [3, 12] was −5.38%, the “Measured Concentrations” value [3, 13] was 2.96 ± 0.10 ng/mL and the RE [3, 13] was −1.50%. The “Measured Concentrations” value [3, 14] was 278 ± 3 ng/mL, the RE [3, 14] was −7.44% and the “Measured Concentrations” value [3, 15] was 670 ± 15 ng/mL. The RE [3, 15] was −10.7%, the “Measured Concentrations” value [3, 16] was 2.87 ± 0.29 ng/mL and the RE [3, 16] was −4.22%. The “Measured Concentrations” value [3, 17] was 287 ± 20 ng/mL, the RE [3, 17] was −4.28% and the “Measured Concentrations” value [3, 18] was 684 ± 18 ng/mL. The RE [3, 18] was −8.87%, the “AUC0→t, observed” value [4] was 1327 ng·h/mL and the “Cl, observed” value [4] was 56.8 mL/min/kg. For the same compound, the “Cmax, observed” value [4] was 2038 ng/mL, the “Vd, observed” value [4] was 11.20 L/kg and the Kd (Lon protease 1 (LONP1); previous research, read-out: binding affinity) was 312 nM. For the same compound, the binding affinity (Lon protease 1 (LONP1); same value expressed in ng/mL) was 147 ng/mL, the LonP1 activation (LonP1) was “new LonP1 activator” and the “therapeutic effect on cisplatin-induced acute kidney injury” value [5] was “significant therapeutic effect”. The “effect on renal fibrosis induced by UUO or UIRI” value [6] was “dose-dependently alleviated renal fibrosis”.
